# System: Irritable Bowel Syndrome symptoms (pain associated with intestinal gas, bloating and constipation)
# Experiment: Case report: patient suffering from IBS taking MCT orally
# Assay type: in vivo, human
# Procedure: Over a period of 8 weeks, the patient increased the dose of MCT to approx. 15 mL (in approx. 240 mL of soymilk) per day to achieve complete symptomatic relief from IBS.
substance,measurement,setting,value
Caprylic triglyceride [Neobee 895],"change in HDL, LDL and triglyceride levels",after 10 months of use of MCT,no noticeable change
same,adverse effects on continued use,"continued use, approx. 1 year",without any adverse effects
same,continued relief from IBS symptoms,"continued use, approx. 1 year",complete relief from the IBS symptoms
same,improvement of IBS symptoms,"initially, one teaspoon (approx. 5 mL) MCT as emulsion in soymilk (approx. 240 mL) per day, one patient",some improvement
same,relief of IBS symptoms,"one tablespoon (approx. 15 mL) MCT per day, oral, in approx. 240 mL soymilk, dose increased over 8 weeks, one patient",complete relief of the symptoms

# Reference: US20050070603A1, “Use of glycerides to alleviate symptoms of digestive disorders” (priority 2003, published 2005)
